Experimental data from paper PMC3433420 (PLoS ONE, 2012).
Non-standard residues stand in square brackets, D forms with d. Residues, ends and D or L forms follow the SMILES beside them. No end group written: not given here. pY = N[C@@H](Cc1ccc(OP(=O)(O)O)cc1)C(=O)O

How the values were obtained:
[1] = target: PIK3R2-NC tandem SH2 domains (Homo sapiens, UniProt O00459); test: FP saturation binding assay
[2] = target: T1, RASA1-N SH2 domain (Homo sapiens, UniProt P20936); test: FP saturation binding assay
T1 sequence (P20936 181-272 limits assumed): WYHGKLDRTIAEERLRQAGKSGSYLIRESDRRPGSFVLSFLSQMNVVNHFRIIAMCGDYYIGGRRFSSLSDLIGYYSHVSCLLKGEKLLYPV

[3] = system: SH2 and PTB domains; test: Sum of relative binding free energies (ΔΔG) from FP KDs, relative to 20 µM threshold; parameters: species or system human;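 unit kcal/mol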; settings: summed over the receptor's phosphopeptides
Experimental: In order to further define and classify commonalities and differences among the ErbB family, the relative binding free energy (FE) of each SH2 domain was summed across all phosphosites on each receptor relative to the assay detection threshold of 20 µM according to Equation (3): [drawing 10] (3)

Chain of PIK3R2-NC tandem SH2 domains (O00459 330-716 limits assumed): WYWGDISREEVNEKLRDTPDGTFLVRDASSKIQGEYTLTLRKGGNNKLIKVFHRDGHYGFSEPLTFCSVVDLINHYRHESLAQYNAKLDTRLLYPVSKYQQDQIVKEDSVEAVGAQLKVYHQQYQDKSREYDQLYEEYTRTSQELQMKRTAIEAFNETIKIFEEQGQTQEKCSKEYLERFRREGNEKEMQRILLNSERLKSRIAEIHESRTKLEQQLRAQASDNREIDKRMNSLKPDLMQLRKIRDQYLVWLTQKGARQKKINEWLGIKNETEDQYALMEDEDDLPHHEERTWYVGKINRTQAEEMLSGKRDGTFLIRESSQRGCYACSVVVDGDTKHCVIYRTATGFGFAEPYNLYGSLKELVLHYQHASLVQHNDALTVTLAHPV

CSCC[C@H](NC(=O)[C@H](Cc1ccc(OP(=O)(O)O)cc1)NC(=O)[C@H](CCC(=O)O)NC(=O)[C@H](Cc1ccc(O)cc1)NC(=O)[C@H](CC(=O)O)NC(=O)[C@@H](N)CCC(=O)O)C(=O)N[C@@H](CC(N)=O)C(=O)N[C@@H](CCCNC(=N)N)C(=O)N[C@@H](CCC(N)=O)C(=O)N[C@@H](CCCNC(=N)N)C(=O)N[C@@H](CC(=O)O)C(=O)NCC(=O)N[C@@H](CC(=O)O)C(=O)O [ErbB3 1262 13-mer] (HELM PEPTIDE1{E.D.Y.E.[O=C([C@H](Cc1ccc(OP(=O)(O)O)cc1)N[*:1])[*:2]].M.N.R.Q.R.D.G.D}$$$$V2.0)
Kd [1]: 18.1 µM
Kd [2]: 9.06 µM

CC(C)C[C@H](NC(=O)[C@H](CCCNC(=N)N)NC(=O)[C@H](C)NC(=O)[C@H](Cc1ccc(OP(=O)(O)O)cc1)NC(=O)[C@H](Cc1c[nH]cn1)NC(=O)[C@@H](NC(=O)[C@H](Cc1c[nH]cn1)NC(=O)[C@@H]1CCCN1)C(C)C)C(=O)N[C@@H](CCCCN)C(=O)N[C@H](C(=O)N[C@@H](CC(C)C)C(=O)N[C@@H](CCCNC(=N)N)C(=O)N[C@@H](CC(=O)O)C(=O)O)[C@@H](C)O [ErbB3pY1307] (HELM PEPTIDE1{P.H.V.H.[O=C([C@H](Cc1ccc(OP(=O)(O)O)cc1)N[*:1])[*:2]].A.R.L.K.T.L.R.D}$$$$V2.0)
Kd [2]: 1.88 µM

ErbB3 (SEQG[pY]EEMRAFQD)
Sum free energies (ΔΔG) ([3]; domain ABL1): 0.48
Sum free energies (ΔΔG) ([3]; domain ABL2): 1.81
Sum free energies (ΔΔG) ([3]; domain BCAR3): 1.81
Sum free energies (ΔΔG) ([3]; domain BLK): 4.66
Sum free energies (ΔΔG) ([3]; domain BLNK): 1.99
Sum free energies (ΔΔG) ([3]; domain BMX): 0.00
Sum free energies (ΔΔG) ([3]; domain BTK): 0.53
Sum free energies (ΔΔG) ([3]; domain CRK): 2.18
Sum free energies (ΔΔG) ([3]; domain CRKL): 0.00
Sum free energies (ΔΔG) ([3]; domain DAPP1): 0.00
Sum free energies (ΔΔG) ([3]; domain FER): 1.84
Sum free energies (ΔΔG) ([3]; domain FES): 2.60
Sum free energies (ΔΔG) ([3]; domain FGR): 2.50
Sum free energies (ΔΔG) ([3]; domain GRAP2): 0.40
Sum free energies (ΔΔG) ([3]; domain GRB2): 0.00
Sum free energies (ΔΔG) ([3]; domain GRB7): 8.74
Sum free energies (ΔΔG) ([3]; domain GRB10): 0.00
Sum free energies (ΔΔG) ([3]; domain GRB14): 0.00
Sum free energies (ΔΔG) ([3]; domain HCK): 5.34
Sum free energies (ΔΔG) ([3]; domain HSH2D): 2.34
Sum free energies (ΔΔG) ([3]; domain INPPL1): 1.51
Sum free energies (ΔΔG) ([3]; domain ITK): 1.44
Sum free energies (ΔΔG) ([3]; domain LCK): 9.34
Sum free energies (ΔΔG) ([3]; domain LCP2): 1.08
Sum free energies (ΔΔG) ([3]; domain LYN): 6.66
Sum free energies (ΔΔG) ([3]; domain MATK): 2.34
Sum free energies (ΔΔG) ([3]; domain NCK1): 1.97
Sum free energies (ΔΔG) ([3]; domain NCK2): 2.78
Sum free energies (ΔΔG) ([3]; domain PIK3R1-C): 15.79
Sum free energies (ΔΔG) ([3]; domain PIK3R1-N): 15.42
Sum free energies (ΔΔG) ([3]; domain PIK3R1-NC): 18.21
Sum free energies (ΔΔG) ([3]; domain PIK3R2-C): 4.66
Sum free energies (ΔΔG) ([3]; domain PIK3R2-N): 15.58
Sum free energies (ΔΔG) ([3]; domain PIK3R2-NC): 17.40
Sum free energies (ΔΔG) ([3]; domain PIK3R3-C): 14.57
Sum free energies (ΔΔG) ([3]; domain PIK3R3-N): 18.45
Sum free energies (ΔΔG) ([3]; domain PIK3R3-NC): 23.70
Sum free energies (ΔΔG) ([3]; domain PLCG1-C): 12.45
Sum free energies (ΔΔG) ([3]; domain PLCG1-N): 2.23
Sum free energies (ΔΔG) ([3]; domain PLCG1-NC): 12.83
Sum free energies (ΔΔG) ([3]; domain PLCG2-N): 0.60
Sum free energies (ΔΔG) ([3]; domain PLCG2-NC): 3.76
Sum free energies (ΔΔG) ([3]; domain PTK6): 7.16
Sum free energies (ΔΔG) ([3]; domain PTPN6-C): 0.00
Sum free energies (ΔΔG) ([3]; domain PTPN6-NC): 0.00
Sum free energies (ΔΔG) ([3]; domain PTPN11-C): 0.00
Sum free energies (ΔΔG) ([3]; domain PTPN11-N): 4.57
Sum free energies (ΔΔG) ([3]; domain PTPN11-NC): 4.70
Sum free energies (ΔΔG) ([3]; domain RASA1-C): 0.68
Sum free energies (ΔΔG) ([3]; domain RASA1-N): 11.64
Sum free energies (ΔΔG) ([3]; domain RASA1-NC): 10.86
Sum free energies (ΔΔG) ([3]; domain SH2B2): 0.53
Sum free energies (ΔΔG) ([3]; domain SH2B3): 5.05
Sum free energies (ΔΔG) ([3]; domain SH2B): 1.60
Sum free energies (ΔΔG) ([3]; domain SH2D1A): 6.64
Sum free energies (ΔΔG) ([3]; domain SH2D1B): 6.98
Sum free energies (ΔΔG) ([3]; domain SH2D2A): 10.39
Sum free energies (ΔΔG) ([3]; domain SH2D3A): 0.00
Sum free energies (ΔΔG) ([3]; domain SH2D3C): 5.13
Sum free energies (ΔΔG) ([3]; domain SH3BP2): 1.31
Sum free energies (ΔΔG) ([3]; domain SHB): 1.08
Sum free energies (ΔΔG) ([3]; domain SHC1-PTB): 8.01
Sum free energies (ΔΔG) ([3]; domain SHC1): 3.41
Sum free energies (ΔΔG) ([3]; domain SHC2-PTB): 4.78
Sum free energies (ΔΔG) ([3]; domain SHC3): 0.95
Sum free energies (ΔΔG) ([3]; domain SHC4): 1.50
Sum free energies (ΔΔG) ([3]; domain SHD): 1.64
Sum free energies (ΔΔG) ([3]; domain SHE): 0.00
Sum free energies (ΔΔG) ([3]; domain SHF): 0.00
Sum free energies (ΔΔG) ([3]; domain SLA2): 4.59
Sum free energies (ΔΔG) ([3]; domain SLA): 0.46
Sum free energies (ΔΔG) ([3]; domain SOCS1): 0.00
Sum free energies (ΔΔG) ([3]; domain SOCS2): 2.96
Sum free energies (ΔΔG) ([3]; domain SOCS3): 4.06
Sum free energies (ΔΔG) ([3]; domain SOCS5): 6.74
Sum free energies (ΔΔG) ([3]; domain SOCS6): 6.61
Sum free energies (ΔΔG) ([3]; domain SRC): 9.70
Sum free energies (ΔΔG) ([3]; domain STAP1): 1.44
Sum free energies (ΔΔG) ([3]; domain SUPT6H): 0.00
Sum free energies (ΔΔG) ([3]; domain SYK-C): 0.00
Sum free energies (ΔΔG) ([3]; domain SYK-N): 0.00
Sum free energies (ΔΔG) ([3]; domain SYK-NC): 2.08
Sum free energies (ΔΔG) ([3]; domain TEC): 0.70
Sum free energies (ΔΔG) ([3]; domain TENC1): 3.35
Sum free energies (ΔΔG) ([3]; domain TNS1): 3.92
Sum free energies (ΔΔG) ([3]; domain TNS3): 4.07
Sum free energies (ΔΔG) ([3]; domain TNS4): 0.67
Sum free energies (ΔΔG) ([3]; domain TXK): 1.88
Sum free energies (ΔΔG) ([3]; domain VAV1): 2.95
Sum free energies (ΔΔG) ([3]; domain VAV2): 5.08
Sum free energies (ΔΔG) ([3]; domain VAV3): 5.15
Sum free energies (ΔΔG) ([3]; domain YES1): 10.32
Sum free energies (ΔΔG) ([3]; domain ZAP70-C): 0.57
Sum free energies (ΔΔG) ([3]; domain ZAP70-N): 0.00
Sum free energies (ΔΔG) ([3]; domain ZAP70-NC): 6.20

FDNLYYWDQDPPD [ErbB2 Y1221 (non-phospho)]
Kd [2]: 3.69 µM
